Data set [1] in a line: Acute toxicity in Kunming mouse assessed as survival at 150 to 600 mg/kg, ip single dose measured after 7 days. The class given is organism-based. The note with it: in vivo, 168 h, dose 150-600 mg/kg, time 7 day.
Data set [2] in a line: AUC infinity in male Sprague-Dawley rat at 1 mg/kg, iv measured up to 24 hrs by LCMS-MS analysis. It counts as ADME, organism-based. The conditions noted are these: in vivo.
Data set [3] has as its system HCT-116. As to the kind of experiment: Induction of apoptosis in human HCT-116 cells assessed as viable cells at 10 uM measured after 24 hrs by FITC Annexin V/PI apoptosis detection assay (reference value: 99.71%). The conditions noted are these: read-out: Activity. It counts as functional.
The nature of data set [4]: Cmax in male Sprague-Dawley rat at 5 mg/kg, IG measured up to 24 hrs by LCMS-MS analysis. The class given is ADME, organism-based. The note with it: in vivo, po.
The subject of data set [5] is HCT-116. As to the kind of experiment: In vivo radiosensitizing activity in human HCT-116 cells xenografted in BALB/c mouse assessed as sensitization of 1 GY ionizing radiation induced reduction in tumor weight at 10 mg/kg, ip every day for 14 days radiated for every 2 days once (reference value: 35%). The class given is functional. Also on record: scale not given: the % may be the effect or the level left. The conditions noted are these: time 14 day. In general terms: Xenograft models place foreign cells or tissue in a host animal.

Data set [6] relates to HCT-116. Description: Effect on Lig4 expression in wild type human HCT-116 cells assessed as change in protein level at 5 to 10 uM measured after 24 hrs by Western blot analysis. It counts as functional, cell-based. The conditions noted are these: dose 5-10 µM. A general note: In western blotting, separated proteins are transferred to a membrane and probed.
A further data set concerns SW480. Description: Synergistic cytotoxicity against human SW480 cells assessed as combination index at 5 uM incubated for 48 hrs in presence of 2GY ionizing radiation (IR). It counts as functional.

Active and inactive are the calls of the source. The rule behind the calls is not given here. Where only a bound is given, the exact number is not on record here.

The term AUC(0-inf) denotes the area under the concentration-time curve extrapolated to infinity. For orientation: Cmax means the maximum level reached in the sampled fluid or tissue.

With `COc1cc2c(=O)n(CCN(C)C)c3c4cc5c(cc4ccc3c2cc1OCCN1CCOCC1)OCO5`, the Activity result in data set [1] is recorded as “Non-toxic”; with HCT-116 [5], 77%. The compound further registered an area under the curve AUC(0-inf) in data set [2] of 291 ng·h/mL. Moreover, the viability at 10 µM with HCT-116 [3] stood at 72.1%. Further, in data set [4], the concentration peaked (Cmax) at 70.3 ng/mL. Further, in the data set on HCT-116 [6], the result was inactive. The CI with SW480 is listed as <0.3.
